Results on six compounds are retold here after US5556859A, “N-(4-pyrimidinyl)amide pesticides” (DowElanco, priority 1994, dated 1996).

Broadly, the mortality is the share of the test organisms that died.

The structures appear in SMILES notation.

Assay [1] concerns German cockroach (Blattella germanicus). Nature of the assay: whole plant or invertebrate. Particulars: 240 h, read-out: percent mortality, GECR.
The test system of assay [2] is cotton aphid (Aphis gossypii). Nature of the assay: whole plant or invertebrate. Particulars: 72 h, read-out: percent mortality, CA.
For assay [3], the system named is two spotted spider mite (Tetranychus urticae). Kind of assay: whole plant or invertebrate. The following applies: 72 h, read-out: percent mortality, TSSM.
Assay [4] concerns Southern corn rootworm (Diabrotica undecimpuctata howardi Barber). Nature of the assay: whole plant or invertebrate. The following applies: in Zea mays, soil, read-out: percent mortality, SCRW.
Assay [5] concerns tobacco budworm (Heliothis virescens). Kind of assay: Activity against tobacco budworm (TBW). The format is in vivo. The following applies: 144 h, read-out: percent mortality, TBW. In short, it runs like this: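 Eighteen to twenty Heliothis virescens eggs were placed on half-strength artificial diet and sprayed one hour later with compound at 400 and 50 ppm, in aqueous Tween 20 with acetone/EtOH. Cups were held 6 days at room temperature. Ratings were based on live and dead larval counts and live larval size.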

Assay [6] has as its system beet armyworm (Spodoptera exiqua). Nature of the assay: whole plant or invertebrate. Particulars: 144 h, read-out: percent mortality, BAW.
Assay [7] has as its system peanut root knot nematode (Meloidogyne arenaria). Nature of the assay: whole plant or invertebrate. The following applies: in Arachis hypogaea, read-out: percent mortality, RKN.
Assay [8] concerns aster leafhopper (Macrosteles fascifrons). Kind of assay: whole plant or invertebrate. Particulars: 24 h, read-out: percent mortality, ALH.

`O=C(Cc1ccc(Oc2cccc(C(F)(F)F)c2)cc1)Nc1ccnc(C2CCC2)n1` [Compound 71, 4-(3-trifluoromethylphenoxy)phenyl-N-(2-cyclobutyl-4-pyrimidinyl)acetamide]: the mortality at 400 ppm in assay [1] is 100%; in assay [2] it was 0%; in assay [3], 0%; in assay [5], 60%; in assay [6], 100%; in assay [7], 0%. Moreover, the mortality at 400 ppm in assay [8] stood at 0%. In assay [4], the mortality at 24 µg/g worked out at 0%.

`CCc1nccc(NC(=O)C(=CN(C)C)c2ccc(Oc3ccc(C(F)(F)F)cc3)cc2)n1` [Compound 73, 3-(dimethylamino)-N-(2-ethyl-4-pyrimidinyl)-1-(4-(4-trifluoromethylphenoxy)phenyl)-2-propenamide]: the mortality at 400 ppm in assay [1], in assay [2], in assay [3], in assay [5], in assay [6] and in assay [7] was 100% in each case. Also, in assay [8], the mortality at 400 ppm is 100%. The mortality at 24 µg/g in assay [4] worked out at 100%.

With `CCc1nccc(NC(=O)C(=CN(C)C)c2ccc(Oc3ccc(Cl)cc3)cc2)n1` [Compound 76, 3-(dimethylamino)-N-(2-ethyl-4-pyrimidinyl)-1-(4-(4-chlorophenoxy)phenyl)-2-propenamide], the mortality at 400 ppm amounted to 80% in assay [1]; 100% in assay [2]; 80% in assay [3]; 100% in assay [5]; 100% in assay [6]; 100% in assay [7]. The mortality at 400 ppm in assay [8] worked out at 100%. For the same compound, in assay [4], the mortality at 24 µg/g came to 100%.

Turning to `CCc1nccc(NC(=O)C(=CN(C)C)c2ccc(Oc3ccc(C#N)cc3)cc2)n1` [Compound 78, 3-(dimethylamino)-N-(2-ethyl-4-pyrimidinyl)-1-(4-(4-cyanophenoxy)phenyl)-2-propenamide], the mortality at 400 ppm in assay [1] was found to be 80%; in assay [2], 80%; in assay [3], 80%; in assay [5] it was 100%; in assay [6], 100%; in assay [7], 100%. Moreover, in assay [8], the mortality at 400 ppm amounted to 60%. Also, the mortality at 24 µg/g in assay [4] worked out at 0%.

As for `CCNC=C(C(=O)Nc1ccnc(CC)n1)c1ccc(Oc2ccc(C#N)cc2)cc1` [Compound 79, 3-(ethylamino)-N-(2-ethyl-4-pyrimidinyl)-1-(4-(4-cyanophenoxy)phenyl)-2-propenamide], the mortality at 400 ppm in assay [1], in assay [2], in assay [3], in assay [5], in assay [6] and in assay [7] was 100% throughout. The mortality at 400 ppm in assay [8] was 80%. The mortality at 24 µg/g in assay [4] was determined as 100%.

`CCc1nccc(NC(=O)C(=CNCC(C)C)c2ccc(Oc3ccc(C#N)cc3)cc2)n1` [Compound 80, 3-(2-methylpropylamino)-N-(2-ethyl-4-pyrimidinyl)-2-(4-(4-cyanophenoxy)phenyl)-2-propenamide]: the mortality at 400 ppm in assay [1], in assay [2], in assay [3], in assay [5], in assay [6] and in assay [7] was 100% in each case. In addition, in assay [8], the mortality at 400 ppm was found to be 60%. Further, in assay [4], the mortality at 24 µg/g was determined as 100%.
